pIC50: −log10 of the molar value.
Legend:
Experiment in all cases: Inhibition Assay of PI3K
[1] = target: Phosphatidylinositol 4,5-bisphosphate 3-kinase catalytic subunit alpha isoform (Homo sapiens, UniProt P42336)
[2] = target: Phosphatidylinositol 4,5-bisphosphate 3-kinase catalytic subunit beta isoform (Homo sapiens, UniProt P42338)
[3] = target: T1, Phosphatidylinositol 4,5-bisphosphate 3-kinase catalytic subunit delta isoform (Homo sapiens, UniProt O00329)
T1 sequence (O00329 whole entry): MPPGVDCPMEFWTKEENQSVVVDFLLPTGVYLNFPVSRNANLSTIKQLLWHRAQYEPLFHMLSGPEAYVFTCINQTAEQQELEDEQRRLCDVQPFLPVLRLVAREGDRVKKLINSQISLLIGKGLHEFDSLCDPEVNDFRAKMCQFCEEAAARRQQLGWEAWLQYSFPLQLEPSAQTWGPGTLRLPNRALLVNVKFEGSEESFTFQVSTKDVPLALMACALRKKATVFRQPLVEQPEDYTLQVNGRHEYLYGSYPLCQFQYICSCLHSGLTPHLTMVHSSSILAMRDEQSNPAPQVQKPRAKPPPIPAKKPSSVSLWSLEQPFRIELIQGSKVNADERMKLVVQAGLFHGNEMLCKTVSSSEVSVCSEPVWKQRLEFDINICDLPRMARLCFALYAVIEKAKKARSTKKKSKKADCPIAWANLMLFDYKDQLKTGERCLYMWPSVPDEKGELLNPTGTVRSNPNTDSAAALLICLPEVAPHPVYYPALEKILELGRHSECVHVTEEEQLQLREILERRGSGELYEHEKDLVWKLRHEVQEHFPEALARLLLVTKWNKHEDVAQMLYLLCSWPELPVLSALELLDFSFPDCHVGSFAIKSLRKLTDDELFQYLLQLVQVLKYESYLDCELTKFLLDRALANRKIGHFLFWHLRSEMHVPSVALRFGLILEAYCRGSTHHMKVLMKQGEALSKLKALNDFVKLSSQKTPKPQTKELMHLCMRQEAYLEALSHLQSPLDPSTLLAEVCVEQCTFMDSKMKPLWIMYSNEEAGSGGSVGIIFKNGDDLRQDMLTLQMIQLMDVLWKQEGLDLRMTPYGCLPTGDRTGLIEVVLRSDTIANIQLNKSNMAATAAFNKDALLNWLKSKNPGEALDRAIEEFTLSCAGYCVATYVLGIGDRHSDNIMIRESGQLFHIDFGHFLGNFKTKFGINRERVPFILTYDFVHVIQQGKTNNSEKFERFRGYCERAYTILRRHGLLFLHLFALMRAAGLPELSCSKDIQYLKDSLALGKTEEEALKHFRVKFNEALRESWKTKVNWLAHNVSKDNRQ

[4] = target: Phosphatidylinositol 4,5-bisphosphate 3-kinase catalytic subunit gamma isoform (Homo sapiens, UniProt P48736)
Sequence of Phosphatidylinositol 4,5-bisphosphate 3-kinase catalytic subunit gamma isoform (P48736 whole entry, canonical isoform): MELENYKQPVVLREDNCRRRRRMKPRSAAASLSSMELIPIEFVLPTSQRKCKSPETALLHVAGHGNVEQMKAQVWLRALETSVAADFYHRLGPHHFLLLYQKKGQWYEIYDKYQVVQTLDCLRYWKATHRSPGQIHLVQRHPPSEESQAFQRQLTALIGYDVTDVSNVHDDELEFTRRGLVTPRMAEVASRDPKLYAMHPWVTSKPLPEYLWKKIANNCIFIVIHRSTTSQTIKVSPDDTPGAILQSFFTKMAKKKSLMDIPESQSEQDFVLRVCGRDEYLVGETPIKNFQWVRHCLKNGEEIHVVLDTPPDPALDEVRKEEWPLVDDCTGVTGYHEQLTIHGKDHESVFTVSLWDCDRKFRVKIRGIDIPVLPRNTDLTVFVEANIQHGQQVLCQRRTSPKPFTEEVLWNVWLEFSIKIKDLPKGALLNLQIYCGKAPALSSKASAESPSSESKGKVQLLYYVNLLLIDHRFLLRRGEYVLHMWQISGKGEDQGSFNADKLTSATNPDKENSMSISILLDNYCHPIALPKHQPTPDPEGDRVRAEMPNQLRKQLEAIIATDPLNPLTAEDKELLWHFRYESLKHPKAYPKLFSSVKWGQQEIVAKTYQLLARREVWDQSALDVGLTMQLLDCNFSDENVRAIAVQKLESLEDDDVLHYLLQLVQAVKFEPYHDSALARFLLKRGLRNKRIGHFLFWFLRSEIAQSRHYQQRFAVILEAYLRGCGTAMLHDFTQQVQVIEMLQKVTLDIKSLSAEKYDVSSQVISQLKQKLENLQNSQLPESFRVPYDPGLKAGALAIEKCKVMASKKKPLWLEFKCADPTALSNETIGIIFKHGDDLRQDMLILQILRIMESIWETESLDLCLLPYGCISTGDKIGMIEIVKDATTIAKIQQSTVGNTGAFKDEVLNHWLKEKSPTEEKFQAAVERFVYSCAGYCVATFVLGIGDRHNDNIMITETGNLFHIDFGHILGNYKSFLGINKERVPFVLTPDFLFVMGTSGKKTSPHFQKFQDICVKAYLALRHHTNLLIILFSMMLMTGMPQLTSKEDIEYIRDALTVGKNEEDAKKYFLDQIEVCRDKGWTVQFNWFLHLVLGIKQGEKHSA

Sequence of Phosphatidylinositol 4,5-bisphosphate 3-kinase catalytic subunit beta isoform (P42338 whole entry, canonical isoform): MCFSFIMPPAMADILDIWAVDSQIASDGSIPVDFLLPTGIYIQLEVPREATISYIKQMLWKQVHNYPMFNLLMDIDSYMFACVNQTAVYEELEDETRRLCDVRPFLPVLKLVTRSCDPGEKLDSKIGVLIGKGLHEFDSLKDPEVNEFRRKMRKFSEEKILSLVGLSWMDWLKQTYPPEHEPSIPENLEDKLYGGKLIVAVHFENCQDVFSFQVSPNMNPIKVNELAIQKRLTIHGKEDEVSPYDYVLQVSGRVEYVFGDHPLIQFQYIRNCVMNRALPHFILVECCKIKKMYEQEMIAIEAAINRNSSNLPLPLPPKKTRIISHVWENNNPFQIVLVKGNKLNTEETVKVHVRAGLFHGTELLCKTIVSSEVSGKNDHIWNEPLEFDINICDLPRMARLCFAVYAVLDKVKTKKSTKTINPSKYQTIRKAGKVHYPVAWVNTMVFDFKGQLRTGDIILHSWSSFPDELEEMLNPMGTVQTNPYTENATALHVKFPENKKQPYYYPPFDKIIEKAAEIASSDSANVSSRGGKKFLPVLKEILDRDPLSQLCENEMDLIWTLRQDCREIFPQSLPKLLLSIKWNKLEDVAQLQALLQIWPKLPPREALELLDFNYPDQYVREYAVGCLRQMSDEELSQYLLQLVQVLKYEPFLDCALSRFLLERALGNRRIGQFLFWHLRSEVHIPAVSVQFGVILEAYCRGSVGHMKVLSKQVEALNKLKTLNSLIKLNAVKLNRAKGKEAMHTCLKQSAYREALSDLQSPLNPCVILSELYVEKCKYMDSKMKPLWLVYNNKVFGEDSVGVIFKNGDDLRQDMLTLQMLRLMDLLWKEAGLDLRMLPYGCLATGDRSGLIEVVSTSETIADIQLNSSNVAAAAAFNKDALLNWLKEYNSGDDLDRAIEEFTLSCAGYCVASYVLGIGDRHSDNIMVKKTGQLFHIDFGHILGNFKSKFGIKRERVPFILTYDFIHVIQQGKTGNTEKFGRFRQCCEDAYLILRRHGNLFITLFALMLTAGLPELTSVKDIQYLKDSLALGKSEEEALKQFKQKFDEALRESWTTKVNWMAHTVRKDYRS
Sequence of Phosphatidylinositol 4,5-bisphosphate 3-kinase catalytic subunit alpha isoform (P42336 whole entry, canonical isoform): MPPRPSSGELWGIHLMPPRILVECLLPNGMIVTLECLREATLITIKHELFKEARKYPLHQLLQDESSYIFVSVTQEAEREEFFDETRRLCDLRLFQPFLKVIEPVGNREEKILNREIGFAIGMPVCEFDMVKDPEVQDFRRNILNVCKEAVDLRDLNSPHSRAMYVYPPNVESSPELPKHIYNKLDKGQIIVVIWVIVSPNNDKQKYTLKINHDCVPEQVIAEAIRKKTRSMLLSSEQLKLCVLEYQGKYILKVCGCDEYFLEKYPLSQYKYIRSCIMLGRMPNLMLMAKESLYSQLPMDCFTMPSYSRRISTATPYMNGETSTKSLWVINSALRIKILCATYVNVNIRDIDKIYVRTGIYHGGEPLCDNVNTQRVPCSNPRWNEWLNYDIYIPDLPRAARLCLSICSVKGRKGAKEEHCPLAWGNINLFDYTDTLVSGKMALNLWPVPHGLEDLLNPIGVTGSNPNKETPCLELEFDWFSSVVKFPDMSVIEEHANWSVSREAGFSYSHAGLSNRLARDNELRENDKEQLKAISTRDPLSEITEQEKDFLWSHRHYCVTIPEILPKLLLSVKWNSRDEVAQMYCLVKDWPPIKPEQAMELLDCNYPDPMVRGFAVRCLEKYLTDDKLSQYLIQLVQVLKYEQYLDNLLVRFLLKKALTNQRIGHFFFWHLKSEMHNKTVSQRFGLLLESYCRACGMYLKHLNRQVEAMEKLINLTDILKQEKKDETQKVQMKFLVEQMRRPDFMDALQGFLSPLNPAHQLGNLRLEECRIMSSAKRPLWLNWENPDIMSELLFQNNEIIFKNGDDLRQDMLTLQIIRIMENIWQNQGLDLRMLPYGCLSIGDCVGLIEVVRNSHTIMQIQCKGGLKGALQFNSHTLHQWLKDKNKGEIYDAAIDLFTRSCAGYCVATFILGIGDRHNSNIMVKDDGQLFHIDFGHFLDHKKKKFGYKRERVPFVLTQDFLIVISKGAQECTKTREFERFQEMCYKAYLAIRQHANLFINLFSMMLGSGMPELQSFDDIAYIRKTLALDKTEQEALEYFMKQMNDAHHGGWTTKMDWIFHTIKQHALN

Row | SMILES | pIC50 [1] | pIC50 [2] | pIC50 [3] | pIC50 [4]
1 | Nc1n[nH]c2c(-c3ccc4ncc(C(=O)N5CCOCC5)n4c3)cccc12 [US11547697, Compound 490] | < 5.00 | < 5.00 | < 5.00 | < 5.00
2 | CC(C)N1CCC(n2cnc3ccc(-c4cncc(NS(C)(=O)=O)c4)cc3c2=O)CC1 [US11547697, Compound 520] | < 5.00 | < 5.00 | < 5.00 | < 5.00
3 | Cc1c(-c2ccc3ncc(C(=O)N4CCOCC4)n3c2)ccc2oc(N)nc12 [US11547697, Compound 369] | < 5.00 | < 5.00 | < 5.00 | < 5.00
4 | Nc1nc2ccc(-c3ccc4nc(N)oc4c3)cc2o1 [US11547697, Compound 246] | < 5.00 | < 5.00 | < 5.00 | < 5.00
5 | CC(C)N1CCN(c2cnc3ccc(-c4ccc5oc(N)nc5c4)cc3n2)C(=O)C1 [US11547697, Compound 392] | < 5.00 | < 5.00 | < 5.00 | < 5.00
6 | Nc1nc2cc(-c3ccc4nnc(C(=O)N5CCOCC5)n4c3)ccc2o1 [US11547697, Compound 282] | < 5.00 | < 5.00 | < 5.00 | < 5.00
7 | O=C(c1cnc2ccc(-c3ccc4c(Nc5ccccc5)nsc4c3)cn12)N1CCOCC1 [US11547697, Compound 505] | < 5.00 | < 5.00 | < 5.00 | < 5.00
8 | C[C@H]1CN(c2cnc3ccc(-c4cccc5c(N)nsc45)cc3n2)CCN1 [US11547697, Compound 321] | < 5.00 | < 5.00 | < 5.00 | < 5.00
9 | COc1ccc(-c2ccc3ncc(C(=O)N4CCOCC4)n3c2)cc1NS(C)(=O)=O [US11547697, Compound 456] | < 5.00 | < 5.00 | < 5.00 | < 5.00
10 | O=C(c1cnc2ccc(-c3cccc(S(=O)(=O)Nc4cc(F)ccc4F)c3)cn12)N1CCOCC1 [US11547697, Compound 441] | < 5.00 | < 5.00 | < 5.00 | < 5.00
11 | C[C@H]1CN(c2cnc3scc(-c4ccc5oc(N)nc5c4)c3c2)CCN1 [US11547697, Compound 399] | < 5.00 | < 5.00 | < 5.00 | < 5.00
12 | Nc1nc2cc(-c3nc4cc(-c5cccnc5)cnc4s3)ccc2o1 [US11547697, Compound 402] | < 5.00 | < 5.00 | < 5.00 | < 5.00
13 | Cc1nc2ccc(-c3ccc4oc(N)nc4c3)cn2c1C(=O)N1CCOCC1 [US11547697, Compound 92] | < 5.00 | < 5.00 | < 5.00 | < 5.00
14 | C[C@H]1CN(c2cnc3ccc(-c4cccc5c(N)noc45)cc3n2)CCN1 [US11547697, Compound 363] | < 5.00 | < 5.00 | < 5.00 | < 5.00
15 | CS(=O)(=O)Nc1cccc(-c2ccc3ncc(C(=O)N4CCOCC4)n3c2)c1 [US11547697, Compound 443] | < 5.00 | < 5.00 | < 5.00 | < 5.00
16 | Nc1nc2cc(-c3cn4c(C(=O)N5CCOCC5)cnc4cn3)ccc2o1 [US11547697, Compound 122] | < 5.00 | < 5.00 | < 5.00 | < 5.00
17 | CC(=O)Nc1nc2ccc(-c3nc(N4CCOCC4)c4sc(CN5CCN(S(C)(=O)=O)CC5)cc4n3)cc2s1 [US11547697, Compound 130] | < 5.00 | < 5.00 | < 5.00 | < 5.00
18 | Nc1noc2c(-c3ccc4ncc(C(=O)N5CCOCC5)n4c3)cccc12 [US11547697, Compound 491] | < 5.00 | < 5.00 | < 5.00 | < 5.00
19 | Nc1nc2cc(-c3ccc4[nH]nc(N)c4c3)ccc2o1 [US11547697, Compound 427] | < 5.00 | < 5.00 | < 5.00 | < 5.00
20 | Nc1n[nH]c2cc(-c3ccc4ncc(C(=O)N5CCOCC5)n4c3)ccc12 [US11547697, Compound 487] | < 5.00 | < 5.00 | < 5.00 | < 5.00

The next lines start with the values.

Row | pIC50 [1] | pIC50 [2] | pIC50 [3] | pIC50 [4] | SMILES
21 | < 5.00 | < 5.00 | < 5.00 | < 5.00 | CNS(=O)(=O)c1cc(-c2ccc3ncc(C(=O)N4CCOCC4)n3c2)ccc1OC [US11547697, Compound 445]
22 | < 5.00 | < 5.00 | < 5.00 | < 5.00 | C[C@H]1CN(c2cnc3cccc(-c4ccc5oc(N)nc5c4)c3n2)CCN1 [US11547697, Compound 342]
23 | < 5.00 | < 5.00 | < 5.00 | < 5.00 | Cc1cc2oc(N)nc2cc1-c1ccc2ncc(C(=O)N3CCOCC3)n2c1 [US11547697, Compound 352]
24 | < 5.00 | < 5.00 | < 5.00 | < 5.00 | Cc1cc2ncc(C(=O)N3CCOCC3)n2cc1-c1ccc2oc(N)nc2c1 [US11547697, Compound 507]
25 | < 5.00 | < 5.00 | < 5.00 | < 5.00 | O=C(c1cnc2ccc(-c3cccc(S(=O)(=O)Nc4ccccc4)c3)cn12)N1CCOCC1 [US11547697, Compound 440]
26 | < 5.00 | < 5.00 | < 5.00 | < 5.00 | Cc1c(-c2ccc3oc(N)nc3c2)ccc2ncc(C(=O)N3CCOCC3)n12 [US11547697, Compound 349]
27 | < 5.00 | < 5.00 | < 5.00 | < 5.00 | CS(=O)(=O)Nc1nc2cc(-c3ccc4ncc(C(=O)N5CCOCC5)n4c3)ccc2o1 [US11547697, Compound 405]
28 | < 5.00 | < 5.00 | < 5.00 | < 5.00 | Cc1c(-c2ccc3ncc(N4CC(N5CCOCC5)C4)nc3c2)ccc2oc(N)nc12 [US11547697, Compound 362]
29 | < 5.00 | < 5.00 | < 5.00 | < 5.00 | CNS(=O)(=O)c1cccc(-c2ccc3ncc(C(=O)N4CCOCC4)n3c2)c1 [US11547697, Compound 442]
